Results reported in PMC5716981, “Inhibition of A2A Adenosine Receptor Signaling in Cancer Cells Proliferation by the Novel Antagonist TP455” (Frontiers in Pharmacology, 2017).
Structures can show the parent of a compound that is named as a salt.

What was measured:
A375 cells = assay: DELFIA cell proliferation (BrdU) in A375 cells; type: cell-based, human; details: for inhibition of CGS21680-induced cell proliferation by signalling inhibitor: 10 μM inhibitor 30 min pretreatment; for inhibition of CGS21680-induced cell proliferation by signalling inhibitor / antagonism of CGS21680-induced cell proliferation: 100 nM CGS21680, 48 h; for effect on cell proliferation when tested alone: 48 h
Protocol: (§1) Tumoral cell lines A375 (human skin malignant melanoma), A549 (adenocarcinomic human alveolar basal epithelial cells) and rat cell line MRMT-1 (rat breast carcinoma cells) were purchased from ATCC and were grown adherently at 37°C in 5% CO2/95% air. A375 and A549 were maintained in DMEM high glucose medium containing 10% fetal calf serum, penicillin (100 U/mL) and streptomycin ([…]) and MRMT-1 were grown in RPMI 1640 medium containing 10% fetal calf serum, penicillin (100 U/mL), streptomycin ([…]), and L-glutamine (2 mM). Adenosine receptor agonists and antagonists and inhibitors of kinases, were made up in dimethyl sulfoxide solution (DMSO) and then diluted in cell culture medium (0.1 max 0.2% of DMSO). An equal amount of DMSO was used in control cells (CTR).
(§2) The DELFIA assay was performed to determine cell proliferation according to the manufacturer’s protocol from PerkinElmer (Milan, Italy). The assay is a time-resolved fluoroimmunoassay based on the incorporation of BrdU into newly synthesized DNA strands of proliferating cells cultured in microliter plates. Incorporated BrdU is detected using a europium labeled monoclonal antibody and the fluorescence measured is proportional to the DNA synthesis in the cell population of each well. A375, A549, and MRMT-1 cells were cultured over night at 1000 cells/well in a 96-well plate (at a final volume of 100 μl per well), agonists and antagonists were added and the cells were incubated for 30′ before addition of the BrdU-Labeling solution 10 μl/well. The cells were then cultured for 24, 48, or 72 h. At the end of the incubation period, cells were fixed (fix solution 100 μl/well), added with 100 μl/well of Anti-BrdU-Eu (0.5 μg/ml) and incubated for 120 min at room temperature. After four washes, 200 μl of DELFIA Inducer were added at room temperature for 15 min and the Eu-fluorescence was detected through an Ensight Perkin Elmer-multimode plate reader (Perkin Elmer, Milan, Italy). Two kinds of controls were performed: the blank where no cells were added to the well but only culture medium and the background where no BrdU was added to the wells.

A549 cells = assay: DELFIA cell proliferation (BrdU) in A549 cells; type: cell-based, human; details: for inhibition of CGS21680-induced cell proliferation by signalling inhibitor: 10 μM inhibitor 30 min pretreatment; for inhibition of CGS21680-induced cell proliferation by signalling inhibitor / antagonism of CGS21680-induced cell proliferation: 100 nM CGS21680, 24 h; for effect on cell proliferation: 100 nM
Protocol: as §1, §2

MRMT-1 cells = assay: DELFIA cell proliferation (BrdU) in MRMT-1 cells; type: cell-based, rat; details: for inhibition of CGS21680-induced cell proliferation by signalling inhibitor: 10 μM inhibitor 30 min pretreatment; for inhibition of CGS21680-induced cell proliferation by signalling inhibitor / antagonism of CGS21680-induced cell proliferation: 100 nM CGS21680, 48 h; for effect on cell proliferation when tested alone: 48 h
Protocol: as §1, §2

pERK1/2 = assay: AlphaScreen SureFire pERK1/2 assay in MRMT-1, A375 and A549 cells; type: cell-based, human and rat; details: for inhibition of CGS21680-mediated ERK1/2 phosphorylation: 10 μM inhibitor, 100 nM CGS 21680, MRMT-1, A375 and A549 cells; for antagonism of CGS21680-induced ERK1/2 phosphorylation: 100 nM CGS21680 5 min
Protocol: (§3) AlphaScreen SureFire phospho(p)ERK1/2(Thr202/Tyr204), pJNK1/3(pThr183/Tyr185), and p-AKT1/2/3 (pThr308) assay kits (Perkin Elmer, Milan, Italy) were utilized. Upon kinase phosphorylation and excitation at 680 nm, fluorescent signals at 615 nm are emitted. Cells were seeded in 100 μl culture medium into 96-well plates (30,000/well), and incubated at 37°C for 24 h. Cells were pretreated with various inhibitors and TP455 for 30 min. Then, receptors were maximally stimulated using 100 nM CGS 21680 and incubated for 5 min (ERK1/2, JNK1/2-MAPK) or 30 min (AKT) at 37°C. After agonist removal, lysis buffer was added, then donor and acceptor beads linked to specific anti-p-kinase- and anti-kinase-antibodies were dispensed, according to manufacturer instructions. Finally, fluorescent signals were detected through an Ensight Perkin Elmer-multimode plate reader (Perkin Elmer, Milan, Italy). Data were normalized to fold activation above basal p-kinase levels (=100). For inhibitor graphs, raw data were transformed into percentages relative to controls (basal level = 100%) in order to merge data from several experiments.

pJNK1/2 = assay: AlphaScreen SureFire pJNK1/2 assay in MRMT-1, A375 and A549 cells; type: cell-based, human and rat; details: for inhibition of CGS21680-mediated JNK1/2 phosphorylation: 10 μM inhibitor, 100 nM CGS 21680, MRMT-1, A375 and A549 cells; for antagonism of CGS21680-induced JNK1/2 phosphorylation: 100 nM CGS21680 5 min
Protocol: as §3

pAKT = assay: AlphaScreen SureFire pAKT assay in MRMT-1, A375 and A549 cells; type: cell-based, human and rat; details: for inhibition of CGS21680-mediated AKT phosphorylation: 10 μM inhibitor, 100 nM CGS 21680, MRMT-1, A375 and A549 cells; for antagonism of CGS21680-induced AKT phosphorylation: 100 nM CGS21680 10 min
Protocol: as §3, with “Then, receptors were maximally stimulated using 100 nM CGS 21680 and incubated for 5 min (ERK1/2, JNK1/2-MAPK) or 30 min (AKT) at 37°C.” left out

A2AARs [1] = molecular target: A2AARs (Rattus norvegicus, UniProt P30543); assay: biochemical
Chain of A2AARs (Rattus norvegicus, UniProt P30543) (P30543 whole entry): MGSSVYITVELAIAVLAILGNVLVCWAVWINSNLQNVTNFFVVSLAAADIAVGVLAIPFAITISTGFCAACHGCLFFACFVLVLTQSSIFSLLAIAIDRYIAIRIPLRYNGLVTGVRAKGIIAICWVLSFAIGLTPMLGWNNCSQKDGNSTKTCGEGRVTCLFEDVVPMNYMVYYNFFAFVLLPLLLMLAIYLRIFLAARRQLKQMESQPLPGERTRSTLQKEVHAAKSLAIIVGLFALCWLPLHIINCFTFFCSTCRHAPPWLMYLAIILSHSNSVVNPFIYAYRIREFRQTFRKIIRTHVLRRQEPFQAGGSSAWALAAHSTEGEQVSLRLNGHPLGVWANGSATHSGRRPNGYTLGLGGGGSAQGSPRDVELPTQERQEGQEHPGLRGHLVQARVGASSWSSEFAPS
Protocol: (§4) For membrane preparation the culture medium was removed. […] The cell suspension was homogenized with Polytron and the homogenate was spun for 10 min at 1000 g. The supernatant was then centrifuged for 30 min at 100,000g. The membrane pellet was resuspended in 50 mM Tris HCl buffer pH 7.4, 10 mM MgCl2. […] Then the suspension was frozen at -80°C.
(§5) At the end of the incubation, bound and free radioactivity were separated by filtering, in a Brandel cell harvester, the assay mixture through Whatman GF/B glass-fiber filters. The filter bound radioactivity was counted in a liquid Scintillation Counter Tri Carb Packard 2500 TR (Perkin-Elmer Life and Analytical Sciences, Boston, MA, United States).
(§6) LIGAND was also used to determine inhibitory binding constant (Ki) values from the competition binding experiments. All values in the figures and text are expressed as mean ± standard error (SE) of three independent experiments.

A2AARs [2] = molecular target: T1, A2AARs (Homo sapiens, UniProt P29274); assay: [3H]ZM241385 competition binding in A375 melanoma membranes
T1 sequence (P29274 whole entry): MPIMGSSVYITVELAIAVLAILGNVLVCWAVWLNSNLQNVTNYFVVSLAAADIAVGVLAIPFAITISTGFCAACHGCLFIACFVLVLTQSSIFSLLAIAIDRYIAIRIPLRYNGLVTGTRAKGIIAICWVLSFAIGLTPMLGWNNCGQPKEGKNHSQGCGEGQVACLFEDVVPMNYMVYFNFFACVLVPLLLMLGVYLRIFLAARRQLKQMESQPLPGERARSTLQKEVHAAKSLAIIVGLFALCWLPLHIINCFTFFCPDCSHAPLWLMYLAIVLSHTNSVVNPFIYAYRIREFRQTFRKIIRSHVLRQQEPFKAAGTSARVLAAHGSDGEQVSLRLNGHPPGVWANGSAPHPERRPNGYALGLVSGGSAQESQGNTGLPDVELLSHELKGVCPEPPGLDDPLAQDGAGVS
Protocol: as §4, §5, §6

A2AARs [3] = molecular target: T1, A2AARs; assay: [3H]ZM241385 competition binding in A549 lung carcinoma membranes
Protocol: as §4, §5, §6

[4] = 100 nM, 0-60 min, MRMT-1, A375 and A549 cells
[5] = 10 nM antagonist 30 min pretreatment, MRMT-1, A375 and A549 cells
[6] = 100 nM antagonist 30 min pretreatment
[7] = 100 nM antagonist 30 min pretreatment, MRMT-1, A375 and A549 cells

For `Oc1ccc(-c2nc(-c3ccc(F)cc3)c(-c3ccncc3)[nH]2)cc1` [SB202190, 4-(4-Fluorophenyl)-2-(4-hydroxyphenyl)-5-(4-pyridyl)-1H-imidazole], the “inhibition of CGS21680-induced cell proliferation by signalling inhibitor” value (“inhibition … by signalling inhibitor” below) (A375 cells) was “did not”, the “inhibition … by signalling inhibitor” value (A549 cells) was “did not” and the “inhibition … by signalling inhibitor” value (MRMT-1 cells) was “did not”.
For `COc1ccc2c(c1)CC[C@@H]1[C@@H]2CC[C@]2(C)[C@@H](NCCCCCCN3C(=O)C=CC3=O)CC[C@@H]12` [U73122, 1-[6-[[(17β)-3-Methoxyestra-1,3,5(10)-trien-17-yl]amino]hexyl]-1H-pyrrole-2,5-dione], the “inhibition … by signalling inhibitor” value (A375 cells) was “able to antagonize the stimulatory effect”, the “inhibition of CGS21680-mediated ERK1/2 phosphorylation” value (pERK1/2) was “strongly reduced” and the “inhibition … by signalling inhibitor” value (A549 cells) was “able to antagonize the stimulatory effect”. For the same compound, the “inhibition of CGS21680-mediated JNK1/2 phosphorylation” value (pJNK1/2) was “strongly reduced”, the “inhibition … by signalling inhibitor” value (MRMT-1 cells) was “able to antagonize the stimulatory effect” and the “inhibition of CGS21680-mediated AKT phosphorylation” value (pAKT) was “strongly reduced”.
`N#CC(=C(/N)Sc1ccccc1N)/C(C#N)=C(/N)Sc1ccccc1N` [U0126] was tested, and the “inhibition … by signalling inhibitor” value (A375 cells) was “strongly reduced”, the “inhibition … by signalling inhibitor” value (A549 cells) was “strongly reduced” and the “inhibition … by signalling inhibitor” value (MRMT-1 cells) was “strongly reduced”.
`CCCCCCCCCCCCCCCCCCOC[C@H](COP(=O)(O)O[C@H]1[C@H](O)[C@@H](O)[C@H](O)C[C@H]1OC)OC` [SH5, D-3-Deoxy-2-O-methyl-myo-inositol 1-[(R)-2-methoxy-3-(octadecyloxy)propyl hydrogen phosphate]] was tested, and the “inhibition … by signalling inhibitor” value (A375 cells) was “strongly reduced”, the “inhibition … by signalling inhibitor” value (A549 cells) was “strongly reduced” and the “inhibition … by signalling inhibitor” value (MRMT-1 cells) was “strongly reduced”.
With `CCNC(=O)[C@H]1O[C@@H](n2cnc3c(N)nc(NCCc4ccc(CCC(=O)O)cc4)nc32)[C@H](O)[C@@H]1O` [CGS21680, 2-p-(2-Carboxyethyl)phenethylamino-5′-N-ethylcarboxamido-adenosine hydrochloride hydrate] the “effect on cell proliferation” value (A375 cells; 100 nM, only at 48 h) was “stimulatory effect of cell proliferation”, the “ERK1/2 phosphorylation time course” value (pERK1/2; [4]) was “reached a maximal effect after 5 min” and the “effect on cell proliferation” value (A549 cells; 48 and 72 h) was “not more present”. The “effect on cell proliferation” value (A549 cells; 24 h) was “slightly increased cell proliferation”, the “JNK1/2 phosphorylation time course” value (pJNK1/2; [4]) was “reached a maximal effect after 5 min” and the “effect on cell proliferation” value (MRMT-1 cells; 10 nM, 48 and 72 h) was “raised cell vitality”. The “effect on cell proliferation” value (MRMT-1 cells; 100 nM, 24, 48 and 72 h) was “significant stimulation” and the “AKT phosphorylation time course” value (pAKT; [4]) was “started to increase after 10 min”.
`COc1ccccc1CNc1nc(N)c2nc(-c3ccco3)sc2n1` [TP455, 2-(2-furanyl)-N^5-(2-methoxybenzyl)[1,3]thiazolo[5,4-d]pyrimidine-5,7-diammine] was tested, and the “effect on cell proliferation when tested alone” value (from here on “effect … when tested alone”) (A375 cells; 10 nM alone) was “did not alter cell proliferation”, the “antagonism of CGS21680-induced cell proliferation” value (A375 cells; 10 nM antagonist) was “antagonized” and the Ki (A2AARs [1]) was 6.1 pM. The “antagonism of CGS21680-induced ERK1/2 phosphorylation” value (pERK1/2; [5]) was “potently inhibited”, the “effect … when tested alone” value (A549 cells; 10 nM alone, 24 h) was “did not alter cell proliferation” and the “antagonism of CGS21680-induced cell proliferation” value (A549 cells; 10 nM antagonist) was “antagonized”. For the same compound, the Ki (A2AARs [2]) was 5.8 pM, the “antagonism of CGS21680-induced JNK1/2 phosphorylation” value (pJNK1/2; [5]) was “potently inhibited” and the “effect … when tested alone” value (MRMT-1 cells; 10 nM alone) was “did not alter cell proliferation”. The “antagonism of CGS21680-induced cell proliferation” value (MRMT-1 cells; 10 nM antagonist) was “antagonized”, the “antagonism of CGS21680-induced AKT phosphorylation” value (pAKT; [5]) was “potently inhibited” and the Ki (A2AARs [3]) was 5.3 pM.
With `CC(=O)c1c(O)c(C)c(O)c(Cc2c(O)c3c(c(C(=O)C=Cc4ccccc4)c2O)OC(C)(C)C=C3)c1O` [rottlerin, 1-[6-[(3-Acetyl-2,4,6-trihydroxy-5-methylphenyl)methyl]-5,7-dihydroxy-2,2-dimethyl-2H-1-benzopyran-8-yl]-3-phenyl-2-propen-1-one] the “inhibition … by signalling inhibitor” value (A375 cells) was “able to antagonize the stimulatory effect”, the “inhibition of CGS21680-mediated ERK1/2 phosphorylation” value (pERK1/2) was “strongly reduced” and the “inhibition … by signalling inhibitor” value (A549 cells) was “able to antagonize the stimulatory effect”. For the same compound, the “inhibition of CGS21680-mediated JNK1/2 phosphorylation” value (pJNK1/2) was “strongly reduced”, the “inhibition … by signalling inhibitor” value (MRMT-1 cells) was “able to antagonize the stimulatory effect” and the “inhibition of CGS21680-mediated AKT phosphorylation” value (pAKT) was “strongly reduced”.
With `Oc1c2ccccc2c2c3c(cccc13)N=N2` [SP600125, 1,9-Pyrazoloanthrone] the “inhibition … by signalling inhibitor” value (A375 cells) was “strongly reduced”, the “inhibition … by signalling inhibitor” value (A549 cells) was “strongly reduced” and the “inhibition … by signalling inhibitor” value (MRMT-1 cells) was “strongly reduced”.
In the case of `Nc1nc2c(cnn2CCc2ccccc2)c2nc(-c3ccco3)nn12` [SCH58261], the Ki (A2AARs [1]) is reported as 3260 pM.
With `Nc1nc(NCCc2ccc(O)cc2)nc2nc(-c3ccco3)nn12` [ZM241385, 4-(2-[7-Amino-2-(2-furyl) [1,2,4]triazolo[2,3-a][1,3,5]triazin-5-ylamino]ethyl)phenol] the “effect … when tested alone” value (A375 cells; 100 nM alone) was “did not alter cell proliferation”, the “antagonism of CGS21680-induced cell proliferation” value (A375 cells; [6]) was “completely block the agonist effect” and the “antagonism of CGS21680-induced ERK1/2 phosphorylation” value (pERK1/2; [7]) was “completely reverted”. The “effect … when tested alone” value (A549 cells; 100 nM alone, 24 h) was “did not alter cell proliferation”, the “antagonism of CGS21680-induced cell proliferation” value (A549 cells; [6]) was “completely block the agonist effect” and the “antagonism of CGS21680-induced JNK1/2 phosphorylation” value (pJNK1/2; [7]) was “completely reverted”. For the same compound, the “effect … when tested alone” value (MRMT-1 cells; 100 nM alone) was “did not alter cell proliferation”, the “antagonism of CGS21680-induced cell proliferation” value (MRMT-1 cells; [6]) was “completely block the agonist effect” and the “antagonism of CGS21680-induced AKT phosphorylation” value (pAKT; [7]) was “completely reverted”.
`Nc1ncnc2c1ncn2C1CCCO1` (stereo not shown) [SQ22,536] was tested, and the “inhibition … by signalling inhibitor” value (A375 cells) was “did not block the agonist effect”, the “inhibition … by signalling inhibitor” value (A549 cells) was “did not block the agonist effect” and the “inhibition … by signalling inhibitor” value (MRMT-1 cells) was “did not block the agonist effect”.
For `Nc1nc2ccc(Cl)cc2c2nc(-c3ccco3)nn12` [CGS15943], the Ki (A2AARs [1]) was 2150 pM.
